Key:
human COX-2 = target: T1, human COX-2 (Homo sapiens, UniProt P35354); assay: COX-2 activity (PGE2 production) in HCA-7 cells after A23187; assay type: cell-based; parameters: HCA-7 is a human colon cancer cell line in which COX-2 protein is constitutively expressed; endogenous in cells; host or cells: HCA-7; settings: 30 min pre-incubation, 10 μM A23187, another 30 minutes
T1 sequence (P35354 18-604): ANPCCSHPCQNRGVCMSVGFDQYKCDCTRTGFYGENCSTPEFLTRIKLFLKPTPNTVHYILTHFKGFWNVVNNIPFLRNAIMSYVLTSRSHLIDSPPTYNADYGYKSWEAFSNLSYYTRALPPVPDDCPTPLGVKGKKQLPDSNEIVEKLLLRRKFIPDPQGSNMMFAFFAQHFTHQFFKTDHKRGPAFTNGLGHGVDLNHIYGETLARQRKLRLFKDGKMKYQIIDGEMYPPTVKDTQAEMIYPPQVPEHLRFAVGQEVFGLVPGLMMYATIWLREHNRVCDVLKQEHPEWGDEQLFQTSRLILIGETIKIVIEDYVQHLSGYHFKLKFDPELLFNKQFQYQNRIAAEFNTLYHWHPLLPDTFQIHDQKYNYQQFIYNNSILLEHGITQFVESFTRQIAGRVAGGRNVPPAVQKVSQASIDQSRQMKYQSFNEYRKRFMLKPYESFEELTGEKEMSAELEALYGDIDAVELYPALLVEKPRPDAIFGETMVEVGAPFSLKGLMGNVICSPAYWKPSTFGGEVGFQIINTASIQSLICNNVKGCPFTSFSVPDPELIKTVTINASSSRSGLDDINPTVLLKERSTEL
Protocol: (§1) First, the inhibitory effects of the new synthesized compounds on COX-2 were assayed in two cell lines: Raw264.7 cells and HCA-7 cells. Raw264.7 is a mouse macrophage cell line which expresses a high level of COX-2 protein upon lipopolysaccharide (LPS) induction. […] The concentration of prostaglandins (both PGD2 and PGE2) accumulated in the cell culture medium can be employed as an indicator of COX-2 activity. HCA-7 is a human colon cancer cell line in which COX-2 protein is constitutively expressed. Briefly, the cells were pre-incubated with different concentrations of the new compounds for 30 min, and then 10 μM A23187 (a calcium ionophore) was added to release membrane-bound arachidonic acid (the natural substrate of COX-2) to the cytosolic domain. The system was incubated for another 30 minutes and PGE2 concentrations in the culture medium were determined. In both cell lines, higher PGD2/PGE2 concentrations in the media meant more COX-2 activity.

mouse COX-2 = target: T2, mouse COX-2 (Mus musculus, UniProt Q05769); assay: COX-2 activity (PGD2/PGE2 production) in LPS-induced Raw264.7 cells; assay type: cell-based; settings: for IC50: 0.1 μg/mL LPS, 14 hours co-incubation; for PGD2 production, % of control / PGD2 production by Raw264.7 cells: LPS, 14 hours; for PGD2 production by Raw264.7 cells: 1 μM compound, result in words
T2 construct: Raw264.7 is a mouse macrophage cell line which expresses a high level of COX-2 protein upon lipopolysaccharide (LPS) induction; endogenous in cells; host or cells: Raw264.7 (LPS-induced)
T2 sequence (Q05769 18-604): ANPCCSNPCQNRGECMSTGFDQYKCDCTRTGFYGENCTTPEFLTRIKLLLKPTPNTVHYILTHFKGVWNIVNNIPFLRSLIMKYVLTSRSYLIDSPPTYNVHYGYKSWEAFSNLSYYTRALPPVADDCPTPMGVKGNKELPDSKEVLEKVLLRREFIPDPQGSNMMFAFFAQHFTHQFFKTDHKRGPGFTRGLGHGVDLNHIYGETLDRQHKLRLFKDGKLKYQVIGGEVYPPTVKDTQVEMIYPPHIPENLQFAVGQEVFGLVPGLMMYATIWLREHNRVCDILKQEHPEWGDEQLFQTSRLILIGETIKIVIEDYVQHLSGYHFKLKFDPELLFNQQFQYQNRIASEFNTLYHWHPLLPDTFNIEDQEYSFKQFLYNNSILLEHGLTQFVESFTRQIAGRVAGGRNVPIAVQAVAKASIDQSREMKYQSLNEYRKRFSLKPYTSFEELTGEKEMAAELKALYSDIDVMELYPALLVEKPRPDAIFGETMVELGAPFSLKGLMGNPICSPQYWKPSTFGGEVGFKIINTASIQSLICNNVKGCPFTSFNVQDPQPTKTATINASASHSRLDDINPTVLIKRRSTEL
Protocol: as §1

Raw264.7 cells = assay: Metabolism of the phenolics by Raw264.7 cells; assay type: in vitro ADME, mouse; settings: 1 μM compound, 14 hours
Protocol: FIG. 4A is a bar graph illustration of the metabolism of the phenolics by Raw264.7 cells. Raw264.7 cells were incubated with 0.1 μg/mL LPS and 1 μM 6a1, 6a2 or 6a3, respectively. 14 hours later the concentrations of PGD2, the phenolics (i.e., aglycones, solid bars), and their phase II metabolites (open bars for glucuronides and shade bars for sulfates) were determined in the medium. Less PGD2 production means inhibition of COX-2 enzyme.
Glucuronidation of 6a1 in Raw264.7 cells was not influenced by LPS (FIG. 4B). […] The results of these experiments initially indicate that when characterizing inhibitory effects of the phenolics on COX-2, the importance of metabolic stability should be brought into consideration. This could be why phenolics were not considered to be active against COX-2 in many published reports using cellular COX-2 assays.

human liver microsomes = assay: Glucuronidation by human liver microsomes; assay type: in vitro ADME
Protocol: FIG. 5D is a bar graph illustrating in vitro metabolism of phenolics. Glucuronidation rates of 6a1-6a4 by human liver and intestinal microsomes. Additional metabolic rates of various locally bioavailable COX-2 inhibitors are in Table 4. […]. The incubation systems were: for glucuronidation, 0.88 mM magnesium chloride (MgCl2), 4.4 mM saccharolactone, 0.022 mg/mL alamethicin, 3.5 mM uridine 5′-diphospho-glucuronic acid (UDPGA), 10 μM substrates and different concentrations of microsomes in 50 mM potassium phosphate buffer (pH 7.4); for sulfation, 10 mM dithiothreitol (DTT), 5 mM MgCl2, 100 μM 3′-phosphoadenosine-5′-phosphosulfate (PAPS),10 μM substrate and different concentrations of S9 fractions in 50 mM potassium phosphate buffer (pH 7.4).
In vitro tools were employed to help predict the in vivo metabolism rates of the COX-2 inhibitors that are phenolics. The microsomes and S9 fractions prepared from colon or liver were used to determine the in vivo glucuronidation and sulfation rates of the phenolic compounds, respectively. By employing microsomes and S9 fractions prepared from both rats and humans, it could be determined if the results obtained in the rat model could be reasonably extrapolated to humans. In these experiments, raloxifene and genistein, two phenolic compounds which undergo extensive first-pass metabolism, were selected as controls.

Row | SMILES | IC50 (human COX-2) [µM] | IC50 (mouse COX-2) [µM] | PGD2 production, % of control (mouse COX-2; 1 μM 6a1, with glucuronidase (200 units/mL)) | PGD2 production, % of control (mouse COX-2; 1 μM 6a1, without glucuronidase) | PGD2 production by Raw264.7 cells (mouse COX-2) | Form recovered in medium at the end of incubation (Raw264.7 cells) | Glucuronidation rates by liver microsomes (Mean) (human liver microsomes) [pmol/mg/min]
1 | Cc1ccc(-c2cc(COc3ccccc3O)nn2-c2ccc(S(N)(=O)=O)cc2)cc1 [Compound 6a1] | 0.195 ± 0.03 | 1.39 ± 0.384 | 24.3 % of control | 67.5 % of control | only slightly reduced | recovered exclusively as their glucuronides | 11576
2 | Cc1ccc(-c2cc(COc3cccc(O)c3)nn2-c2ccc(S(N)(=O)=O)cc2)cc1 [Compound 6a2] | 0.134 ± 0.018 | 4.62 ± 1.34 |  |  | only slightly reduced | recovered exclusively as their glucuronides | 1512
3 | Cc1ccc(-c2cc(COc3ccc(O)cc3)nn2-c2ccc(S(N)(=O)=O)cc2)cc1 [Compound 6a3] | 0.064 ± 0.005 | 0.019 ± 0.002 |  |  | thoroughly inhibited | stayed as aglycone | 60

From patent US11202773B2, “Locally bioavailable drugs” (UNIVERSITY OF HOUSTON SYSTEM, priority 2015, dated 2021)
